Structures are written as SMILES.

Assay type in all cases: cell-based
One experiment deals with SW480. Description: MTT cell viability, SW480 (colorectal cancer). Particulars: Homo sapiens, 48 hour incubation, read-out: Drug concentrations for 50% cell viability (IC50). Here is the method:
(§1) In vitro anticancer activity of the compound of Formula I was performed using popular MTT method (Archives of Biochemistry and Biophysics, 1993, 303, […]) against lung cancer, colorectal cancer, cervical cancer, osteosarcoma, leiomyosarcoma, malignant melanoma, pancreas cancer, prostate cancer, nasopharyngeal cancer, glioma, esophageal cancer, stomach cancer, and liver cancer.
(§2) Cell Culture: A549, DLD1, SW480, LOVO, HT-29, Hela, U-20S, MES-SA, SK-MEL-28, Panc-1, DU-145, CNE, U251, Eca-109, MGC80-3, QGY-7701, BEL-7404, PLC/PRF/5, Huh-7, and SGC-7901 cells were maintained in Dulbecco's Modified Eagle Medium (DMEM) (imported from Invitrogen, Carlsbad, Calif., USA) supplemented with 10% fetal bovine serum (FBS) (Si Ji Qing, Hangzhou, China) and 1% penicillin/streptomycin/amphotercin B (imported from Invitrogen, Carlsbad, Calif., USA). Cell Viability Determination: Popular MTT method (Archives of Biochemistry and Biophysics. 1993, 303, 474-482) was used to screen the in vitro effects of the invented drugs. Briefly, 5000 to 10000 cells were inoculated per well in a 96-well plate. After overnight incubation, drug was added to the wells at final concentration of 10 μM, 5 μM, 2.5 μM, 1.25 μM, or 1 μM, 0.75 μM, 0.5 μM and 0.25 μM in complete culture medium. […] The absorbance of each well at 570 nm wavelength was measured by a micro-plate reader after gentle shaking for 20 minutes. […]

The test system of another experiment is Panc-1. Description: MTT cell viability, Panc-1 (pancreatic cancer). The following applies: Homo sapiens, 48 hour incubation, read-out: Drug concentrations for 50% cell viability (IC50). Here is the method: as §1, §2
A further experiment has as its system MES-SA. In words: MTT cell viability, MES-SA (leiomyosarcoma). The following applies: Homo sapiens, 48 hour incubation, read-out: Drug concentrations for 50% cell viability (IC50). Here is the method: as §1, §2
The test system of another experiment is SK-MEL-28. In words: MTT cell viability, SK-MEL-28 (malignant melanoma). The following applies: Homo sapiens, 48 hour incubation, read-out: Drug concentrations for 50% cell viability (IC50). Here is the method: as §1, §2
The next experiment concerns BEL-7404. Description: MTT cell viability, BEL-7404 (liver cancer). Particulars: Homo sapiens, 48 hour incubation, read-out: Drug concentrations for 50% cell viability (IC50). Here is the method: as §1, §2
The subject of a further experiment is A549. Description: MTT cell viability, A549 (lung cancer). The following applies: Homo sapiens, 48 hour incubation, read-out: Drug concentrations for 50% cell viability (IC50). Here is the method: as §1
(§3) Cell Culture: A549, DLD1, SW480, LOVO, HT-29, Hela, U-20S, MES-SA, SK-MEL-28, Panc-1, DU-145, CNE, U251, Eca-109, MGC80-3, QGY-7701, BEL-7404, PLC/PRF/5, Huh-7, and SGC-7901 cells were maintained in Dulbecco's Modified Eagle Medium (DMEM) (imported from Invitrogen, Carlsbad, Calif., USA) supplemented with 10% fetal bovine serum (FBS) (Si Ji Qing, Hangzhou, China) and 1% penicillin/streptomycin/amphotercin B (imported from Invitrogen, Carlsbad, Calif., USA). Cell Viability Determination: Popular MTT method (Archives of Biochemistry and Biophysics. 1993, 303, 474-482) was used to screen the in vitro effects of the invented drugs. Briefly, 5000 to 10000 cells were inoculated per well in a 96-well plate. After overnight incubation, drug was added to the wells at final concentration of 10 μM, 5 μM, 2.5 μM, 1.25 μM, or 1 μM, 0.75 μM, 0.5 μM and 0.25 μM in complete culture medium. Each dose level covered 4 equivalent wells. After 48 hour incubation, one tenth volume of 5 mg/mL MTT (thiazolyl blue tetrazolium bromide, Sigma-Aldrich) stock solution was added, and incubation continued for 2 hours. Then medium was removed and 100 μL of isopropanol solution comprising 86% isopropanol, 4% aqueous 1N HCl and 10% aqueous solution of 10% SDS was added. The absorbance of each well at 570 nm wavelength was measured by a micro-plate reader after gentle shaking for 20 minutes. Drug concentrations of 50% cell viability (IC50) were calculated by LOGIT method.

For the next experiment, the system named is QGY-7701. Description: MTT cell viability, QGY-7701 (liver cancer). The following applies: QGY7701, 48 hour incubation, read-out: Drug concentrations for 50% cell viability (IC50). Here is the method:
as §1, §2

The test system of another experiment is CNE. Description: MTT cell viability, CNE (nasopharyngeal cancer). The following applies: Homo sapiens, 48 hour incubation, read-out: Drug concentrations for 50% cell viability (IC50). Here is the method: as §1, §2
A further experiment concerns U251. Description: MTT cell viability, U251 (glioma). Particulars: Homo sapiens, U-251, 48 hour incubation, read-out: Drug concentrations for 50% cell viability (IC50). Here is the method:
as §1, §2

A further experiment relates to DLD1. Description: MTT cell viability, DLD1 (colorectal cancer). Particulars: Homo sapiens, DLD-1, 48 hour incubation, read-out: Drug concentrations for 50% cell viability (IC50). Here is the method: as §1, §3
The test system of the next experiment is Eca-109. Description: MTT cell viability, Eca-109 (esophageal cancer). The following applies: Homo sapiens, 48 hour incubation, read-out: Drug concentrations for 50% cell viability (IC50). Here is the method: as §1, §2
The next experiment relates to U-20S. In words: MTT cell viability, U-20S (osteosarcoma). Particulars: 48 hour incubation, read-out: Drug concentrations for 50% cell viability (IC50). Here is the method:
as §1, §3

The subject of the next experiment is Hela. Description: MTT cell viability, Hela (cervical cancer). The following applies: Homo sapiens, 48 hour incubation, read-out: Drug concentrations for 50% cell viability (IC50). Here is the method:
as §1, §2

Another experiment relates to Huh-7. Description: MTT cell viability, Huh-7 (liver cancer). Particulars: Homo sapiens, 48 hour incubation, read-out: Drug concentrations for 50% cell viability (IC50). Here is the method:
as §1, §2

In another experiment the test system is MGC80-3. Description: MTT cell viability, MGC80-3 (stomach cancer). Particulars: Homo sapiens, MGC-803, 48 hour incubation, read-out: Drug concentrations for 50% cell viability (IC50). Here is the method:
as §1, §2

The subject of another experiment is LOVO. In words: MTT cell viability, LOVO (colorectal cancer). The following applies: Homo sapiens, 48 hour incubation, read-out: Drug concentrations for 50% cell viability (IC50). Here is the method:
as §1, §2

A further experiment concerns HT-29. Description: MTT cell viability, HT-29 (colorectal cancer). The following applies: Homo sapiens, 48 hour incubation, read-out: Drug concentrations for 50% cell viability (IC50). Here is the method:
as §1, §2

For a further experiment, the system named is SGC-7901. In words: MTT cell viability, SGC-7901 (stomach cancer). The following applies: Homo sapiens, 48 hour incubation, read-out: Drug concentrations for 50% cell viability (IC50). Here is the method: as §1, §2
The subject of another experiment is DU-145. In words: MTT cell viability, DU-145 (prostate cancer). The following applies: Homo sapiens, 48 hour incubation, read-out: Drug concentrations for 50% cell viability (IC50). Here is the method: as §1, §3
The next experiment relates to PLC/PRF/5. In words: MTT cell viability, PLC/PRF/5 (liver cancer). Particulars: Homo sapiens, 48 hour incubation, read-out: Drug concentrations for 50% cell viability (IC50). Here is the method:
as §1, §2

Regarding `CS(=O)(=O)c1cc2c(o1)C(=O)c1ccccc1C2=O` [Compound I, 2-methylsulfonyl-naphtho[2,3-b]furan-4,9-dione], the IC50 stood at 1170 nM in the experiment on SW480; 1600 nM with Panc-1; 1200 nM in the experiment with MES-SA; 220 nM in the experiment on SK-MEL-28; 1110 nM in the experiment with BEL-7404; 2500 nM in the experiment on A549. Further, the IC50 in the experiment with QGY-7701 worked out at 3500 nM; in the experiment with CNE, 1360 nM; with U251, 1000 nM; in the experiment with DLD1, 290 nM; in the experiment on Eca-109 it was 3.45 µM; with U-20S it was 430 nM. In addition, the IC50 in the experiment with Hela amounted to 1200 nM; with Huh-7, 2500 nM; with MGC80-3, 1200 nM; with LOVO, 2.15 µM; in the experiment with HT-29 it was 720 nM; in the experiment on SGC-7901 it was 2500 nM. The IC50 with DU-145 is 430 nM; in the experiment with PLC/PRF/5 it was 2500 nM.

Consider `C[S+]([O-])c1cc2c(o1)C(=O)c1ccccc1C2=O` (stereo not drawn) [Compound II, 2-methylsulfinyl-naphtho[2,3-b]furan-4,9-dione], for which the IC50 in the experiment with SW480 was determined as 1250 nM; with Panc-1 it was 1250 nM; in the experiment with MES-SA, 1000 nM; with SK-MEL-28, 240 nM; in the experiment on BEL-7404 it was 1100 nM; in the experiment with A549, 2500 nM. Moreover, the IC50 stood at 2500 nM with QGY-7701; 1250 nM in the experiment on CNE; 1000 nM with U251; 280 nM in the experiment on DLD1; 3.8 µM in the experiment with Eca-109; 390 nM with U-20S. For the same compound, the IC50 in the experiment on Hela came out at 1490 nM; in the experiment on Huh-7, 2500 nM; in the experiment on MGC80-3, 1200 nM; in the experiment on LOVO, 4.57 µM; in the experiment with HT-29, 780 nM; in the experiment with SGC-7901 it was 2500 nM. The results for the IC50 with DU-145 and in the experiment on PLC/PRF/5 were 500 nM and 2000 nM, respectively.

With `CS(=O)(=O)c1oc2c(c1-c1ccccc1)C(=O)c1ccccc1C2=O` [Compound XV, 2-methylsulfonyl-3-phenyl-naphtho[2,3-b]furan-4,9-dione], the IC50 was over 10000 nM in the experiment with A549, 2510 nM in the experiment with DLD1, 3610 nM in the experiment with U-20S and 5000 nM in the experiment with DU-145.

`C[S+]([O-])c1oc2c(c1-c1ccccc1)C(=O)c1ccccc1C2=O` (stereo not drawn) [Compound XVI, 2-methylsulfinyl-3-phenyl-naphtho[2,3-b]furan-4,9-dione]: the IC50 with A549 is 6890 nM; in the experiment with DLD1, 1000 nM; in the experiment with U-20S, 1250 nM; in the experiment on DU-145 it was 3200 nM.

The values are drawn from US8871802B2, “Naphthoquinones for disease therapies” (Zhoushan HaiZhongZhou Xinsheng Pharmaceuticals Co., Ltd., priority 2010, dated 2014).
